Assay results taken from patent US20060216718A1, “Method and system for estimating gene expression data” (priority 2005, published 2006).

Test system: gene expression
Test: Differential gene expression by microarray, linear multi-factor model (FIG. 3)
Type: in vivo, rats
Details: in both males and females, relative to baseline treatment combination (males who received corn oil)
Method: Returning to FIG. 1, the gene expression data 14 thus acquired and, typically, background-corrected, transformed, normalized, and/or otherwise conditioned, is analyzed at step 16 without aggregating or summarizing the readings of the multiple probes from each gene, and with simultaneous assessment of the effects of all the experimental factors. For example, a linear, multi-factor model is used in one embodiment to achieve this. The linear, multi-factor model explicitly accounts for differences in expression between genes, between probes from the same gene, and between the effects of experimental factors (which in one embodiment are gender of the experimental animals, and chemical substance they have been exposed to). The effects of the experimental factors on gene expression are estimated simultaneously, rather than one-at-a-time. In this way, the analysis corresponds to the experimental design, where the factor levels are varied together and simultaneously, rather than one at a time, this enabling the assessment of possible, non-linear interactions between experimental factors. In one example, the linear model is of the form Yijnk=γn+τkn+σln+(τσ)kln+επjn+εijkln […]

SMILES: Clc1cc2c(cc1Cl)Oc1cc(Cl)c(Cl)cc1O2 [TCDD]
- differential gene expression (fold increase) of the genes denoted by reference number 40: about 40 fold
